How the values were obtained:
Mel270 cells = test: MTT cell viability assay, UM cell line Mel270; type: cell-based, human; conditions: 72 h treatment, compared with SAHA and LD10
Procedure: The anti-proliferative effects of the most promising HDAC inhibitors, VS16, VS13, SN2, and LD10 were evaluated on human UM cell lines (92.1 and Mel270) and SAHA was used as a positive control. First, we assessed by MTT assay the cell viability after a 72 h treatment at different concentrations. […] Similar results were found for ovarian carcinoma cell line A2780 and to a lesser extent for SKOV3 (Supplementary Figure S2).
Figure 7. MTT. In vitro cytotoxicity at the 72 h time point of the different compounds in human UM cell lines 92.1 and Mel270, as assessed by the MTT cell viability assay. Data are expressed as percent of control with the DMSO solvent, which was used at the same amount present in the highest compound concentration. Error bars represent SD of quadruplicates. One representative experiment is shown.
(§1) Treatments with the compounds were performed with slight differences, according to the final use of the samples. For the cell viability assay with MTT, cells were seeded in 96-well flat-bottom plates in culture medium at 5 × 10^3 cells/well, whereas for cell cycle analysis and QRT-PCR cells were seeded in 24-well plates at 5 × 10^4 cells/well. The day after, a culture medium containing the appropriate amount of compounds or their solvent control DMSO was added, and treatments were carried out for the indicated time.
Cell viability after treatment was evaluated by a microculture tetrazolium reduction assay using MTT [3–(4,5-dimethyltiazol-2-yl) 2,5-diphenyltetrazolium bromide; Sigma]. At 72 h of treatment, 20 μl of MTT stock solution (2 mg/ml in PBS) were added to 200 μl cell cultures for an additional 4 h of incubation. MTT-containing culture medium was then removed and precipitated formazan was dissolved in 100 μl of DMSO. Results were read within 15 min in a microplate reader spectrometer at 540 nm (MEDGENIX 400 ATC, Medgenix Diagnostics), and the means of quadruplicates were calculated. Cell survival was expressed as a percentage of control samples.

[1] = tested on: HDAC target genes (RAD54L, RAD51, CLU) in Mel270 cells; test: QRT-PCR of mRNA levels of HDAC target genes, Mel270 cells; type: cell-based, human; conditions: 10 µM compound, 48 h, normalised to GAPDH
Procedure: (§2) Finally, we determined if the treatment of UM cells 92.1 and Mel270 with our compounds could modify the mRNA levels of HDAC target genes. […]
(§3) Figure 9. Modulation of RAD54L, RAD51 and CLU mRNA expression by the different compounds in UM cells 92.1 and Mel270. Cells were treated for 48 h with 10 µM compound or the corresponding amount of DMSO. Data, normalised to GAPDH housekeeping gene, are expressed as fold change relative to the DMSO control. Error bars represent SD of triplicates. One representative experiment is shown.
as §1
(§4) To assess the modulation of gene expression, cells were harvested at 48 h of treatment and total RNA was isolated using the NucleoSpin RNA kit (Macherey-Nagel) and reverse-transcribed with the SuperScript III Reverse Transcriptase (Invitrogen). […] Expression levels of mRNAs relative to untreated control were calculated by the ΔΔCT method (Table 3).

HDAC6 = target: T1, HDAC6 (Homo sapiens, UniProt Q9UBN7); test: Microfluidic chip-based HDAC inhibition assay (Calliper off-chip mobility shift), HDAC6; type: biochemical
T1 construct: purchased BPS Bioscience
T1 sequence (Q9UBN7 1-1215): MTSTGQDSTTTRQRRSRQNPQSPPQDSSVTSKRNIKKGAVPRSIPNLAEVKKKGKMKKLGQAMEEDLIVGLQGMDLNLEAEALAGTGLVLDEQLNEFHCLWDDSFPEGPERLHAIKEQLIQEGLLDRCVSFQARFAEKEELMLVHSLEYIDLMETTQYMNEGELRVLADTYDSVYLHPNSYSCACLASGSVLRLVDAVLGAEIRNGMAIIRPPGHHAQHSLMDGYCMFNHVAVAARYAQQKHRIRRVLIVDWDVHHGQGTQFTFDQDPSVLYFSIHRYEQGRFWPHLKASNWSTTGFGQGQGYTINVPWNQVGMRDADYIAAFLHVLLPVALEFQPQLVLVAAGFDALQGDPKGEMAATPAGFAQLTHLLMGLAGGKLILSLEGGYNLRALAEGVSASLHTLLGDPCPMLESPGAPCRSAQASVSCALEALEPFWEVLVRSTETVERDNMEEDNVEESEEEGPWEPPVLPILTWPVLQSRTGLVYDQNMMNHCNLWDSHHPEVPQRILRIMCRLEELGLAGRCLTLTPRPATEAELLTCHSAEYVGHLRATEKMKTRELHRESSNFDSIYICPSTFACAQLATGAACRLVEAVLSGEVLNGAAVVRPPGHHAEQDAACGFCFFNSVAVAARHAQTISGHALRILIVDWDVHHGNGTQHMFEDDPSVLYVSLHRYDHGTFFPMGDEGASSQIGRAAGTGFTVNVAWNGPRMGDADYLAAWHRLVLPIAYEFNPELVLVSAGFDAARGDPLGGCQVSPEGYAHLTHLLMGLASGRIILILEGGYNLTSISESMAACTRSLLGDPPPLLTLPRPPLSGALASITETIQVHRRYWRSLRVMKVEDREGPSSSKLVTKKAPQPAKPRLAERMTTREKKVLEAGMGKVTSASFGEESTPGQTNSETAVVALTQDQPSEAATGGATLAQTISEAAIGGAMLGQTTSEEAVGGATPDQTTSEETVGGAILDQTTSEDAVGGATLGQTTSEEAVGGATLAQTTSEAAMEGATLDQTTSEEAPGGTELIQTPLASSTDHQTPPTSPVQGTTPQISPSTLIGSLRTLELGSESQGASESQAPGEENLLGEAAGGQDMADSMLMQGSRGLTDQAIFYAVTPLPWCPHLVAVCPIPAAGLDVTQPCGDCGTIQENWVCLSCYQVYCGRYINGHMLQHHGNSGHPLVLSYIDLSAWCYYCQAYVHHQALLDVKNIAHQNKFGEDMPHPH
Text: Test compounds were screened against human histone deacetylases (HDACs) 1, 3, 6, and 8 using the Calliper off-chip mobility shift assay technology. All HDACs were purchased from BPS Bioscience and four selective substrates were used according to the targeted isozyme. […] Buffers components, except for CR-3 (LabChip Coating Reagent 3, purchased from PerkinElmer, Product Number 760050) and Panobinostat (LBH589, purchased from ApexBio Technology)[35]^,[36] were purchased from Sigma Aldrich. […] (all purchased from Selleck Chemicals).

[2] = tested on: HDAC target genes (RAD54L, RAD51, CLU, DHRS2, CDKN1A) in 92.1 cells; test: QRT-PCR of mRNA levels of HDAC target genes, 92.1 cells; type: cell-based, human; conditions: 10 µM compound, 48 h, normalised to GAPDH
Procedure: as §2, §3, §1, §4

O=C(CCCCO/N=C/c1cnc2ccccc2c1)NO [Compound 2f, (E)-N-hydroxy-5-(((quinolin-3-ylmethylene)amino)oxy)pentanamide]
effect on cell viability (MTT) (Mel270 cells): stronger effect | modulation of mRNA levels of HDAC target genes [1]: induced a pattern of gene modulation, which overlapped that of SAHA | IC50 (HDAC6): 0.01 µM | times less active than SAHA on HDAC6 (HDAC6; compared with SAHA): 7 times | modulation of mRNA levels of HDAC target genes [2]: induced a pattern of gene modulation, which overlapped that of SAHA
